In test [1] the test system is PD patients suffering from "freezing of gait". The note with it: Narabayashi et al. 1981; cited from earlier work.
For test [2], the system named is PD patients. Briefly: Hoehn and Yahr rating scale score, study of Example 1. The note with it: for Hoehn and Yahr, Baseline: before treatment. The format is in vivo, human. The protocol:
(§1) A multi-center, double-blind, randomized, parallel-group, placebo-controlled study was carried out to assess the clinical effect of droxidopa over the course of 10 weeks for reducing falls in PD patients. The study included a two week double-blind dose-titration period followed by an eight week double-blind treatment period. A screening period (up to 14 days) was used to determine patient eligibility. Throughout the study, visit specific assessments were conducted three hours (an acceptable range was two to five hours) following the patient's first daily dose of droxidopa. Patients who successfully passed all screening assessments continued to the baseline measurements. At the end of the baseline visit, eligible patients were randomized to treatment with either droxidopa or placebo (randomization was double-blind, 1:1). Patients entered a double-blind titration phase at 100 mg TID of droxidopa or matching placebo. Treatment was escalated in 100 mg TID increments to a maximum of 600 mg TID. Upon completion of the dose titration phase, patients returned for a study visit after 8 weeks of double-blind treatment at their titrated dose. The study included 27 placebo-treated patients and 24 droxidopa-treated patients.
(§2) Patients in the study were evaluated using the Hoehn and Yahr rating scale and the Movement Disorder Society-sponsored revised version of the UPDRS to evaluate the effect of treatment as evidenced by these two scales. A baseline score for each patient using each test was established prior to treatment with droxidopa or the placebo, and a post-treatment score for each test was established at the end of the study.
Since the Hoehn and Yahr rating scale is heavily weighted towards postural instability as the primary index of disease severity, it is believed that the Hoehn and Yahr score serves as a useful measure of the effect of treatment on NOH in a PD patient population. At the end of this study, droxidopa-treated patients experienced, on average, an improvement from baseline (i.e., a reduction in the score) in their Hoehn and Yahr rating scale score (change: −0.4 points) while placebo-treated patients experienced no change from baseline in their Hoehn and Yahr rating scale score, resulting in a notable treatment difference of −0.4 units favoring droxidopa. Based on an analysis of Hoehn and Yahr rating scale scores in individual patients, a higher proportion of droxidopa-treated patients experienced an improvement in their Hoehn and Yahr rating scale score at the end of the study (10 of 24 patients; 42%) compared with placebo-treated patients (5 of 27 patients; 19%). Conversely, a lower proportion of droxidopa-treated patients experienced a worsening in their Hoehn and Yahr rating scale score at the end of the study (3 of 24 patients; 13%) compared with placebo-treated patients (10 of 27 patients; 37%).

Test [3] concerns PD patients. Briefly: MDS-UPDRS score, study of Example 1. The format is in vivo, human. Conditions: for MDS-UPDRS, Baseline: before treatment. The protocol:
as §1, §2
The UPDRS likewise is a useful test for evaluating improvements in symptoms that can be a cause of falls in PD patients since this scale is used to assess the severity of motor and non-motor symptoms in PD patients. In the present study, droxidopa-treated patients experienced a 15.8 point improvement (i.e., decrease) from baseline compared with an 11.4 point improvement in placebo-treated patients. […] The 4.4 point treatment difference favoring droxidopa in the total UPDRS score reflects pronounced improvement in the motor features of PD and mirrors the improvements observed on the Hoehn and Yahr rating scale score.

Test [4] deals with PD patients. Briefly: Patient-reported falls, double-blind placebo-controlled study of Example 1. The format is in vivo, human. As to the method:
A multi-center, double-blind, randomized, parallel-group, placebo-controlled study was carried out to assess the clinical effect of droxidopa over the course of 10 weeks for reducing falls in PD patients. The study included a two week double-blind dose-titration period followed by an eight week double-blind treatment period. A screening period (up to 14 days) was used to determine patient eligibility. Throughout the study, visit specific assessments were conducted three hours (an acceptable range was two to five hours) following the patient's first daily dose of droxidopa. Patients who successfully passed all screening assessments continued to the baseline measurements. At the end of the baseline visit, eligible patients were randomized to treatment with either droxidopa or placebo (randomization was double-blind, 1:1). Patients entered a double-blind titration phase at 100 mg TID of droxidopa or matching placebo. Treatment was escalated in 100 mg TID increments to a maximum of 600 mg TID. Upon completion of the dose titration phase, patients returned for a study visit after 8 weeks of double-blind treatment at their titrated dose. The study included 27 placebo-treated patients and 24 droxidopa-treated patients. During the study, the placebo-treated patients reported a total of 197 falls compared with 79 falls reported by the droxidopa-treated patients. […] Standardizing the above data to the number of falls per patient per week, patients randomized to the placebo treatment experienced an average of 0.93 falls per patient per week. Patients randomized to the droxidopa treatment experienced an average of 0.39 falls per patient per week. This represents an approximate 60% reduction in the number of falls reported by droxidopa-treated patients compared with placebo-treated patients. […] In the study, it was evident that a number of patients in each group was not normally distributed—i.e., a few patients in each group experienced many more falls than the remaining patients in each respective group. A sensitivity analysis was performed to assess the robustness of the treatment effect in light of this disparity in falls within each group. The beneficial treatment effect favoring droxidopa was evident even when the top two patients or the top five patients who experienced the highest number of falls in each treatment group were removed from the analysis. See FIG. 4 and FIG. 5, respectively. When the top two patients in each treatment group were excluded, patients randomized to the placebo group experienced an average of 0.54 falls per patient per week compared with 0.16 falls per patient per week in patients randomized to the droxidopa group. Similarly, when the top five patients in each treatment group were excluded, patients randomized to the placebo group experienced an average of 0.20 falls per patient per week compared with 0.10 falls per patient per week in patients randomized to the droxidopa group.

For test [5], the system named is PD patients. Put plainly: Patient falls, double-blind placebo-controlled study of Example 2. Type of test: in vivo, human. As to the method: A multi-center, double-blind, randomized, placebo-controlled study was carried out to assess the clinical effect of droxidopa for reducing falls in PD patients. The study included a two week double-blind dose-titration period followed by an eight week double-blind treatment period. A screening period (up to 14 days) was used to determine patient eligibility. The patients were then randomized into a treatment group and a placebo group. Patients entered a double-blind titration phase at 100 mg TID of droxidopa or matching placebo. Treatment was escalated in 100 mg TID increments to a maximum of 600 mg TID. Upon completion of the dose titration phase, patients returned for study visits after 1, 2, 4, and 8 weeks of double-blind treatment at their titrated dose. The study included 78 placebo-treated patients and 69 droxidopa-treated patients. […] This is illustrated in FIG. 9.

The target of a further test is T1, MAO-A (Homo sapiens, UniProt P21397).
T1 sequence (P21397 1-527): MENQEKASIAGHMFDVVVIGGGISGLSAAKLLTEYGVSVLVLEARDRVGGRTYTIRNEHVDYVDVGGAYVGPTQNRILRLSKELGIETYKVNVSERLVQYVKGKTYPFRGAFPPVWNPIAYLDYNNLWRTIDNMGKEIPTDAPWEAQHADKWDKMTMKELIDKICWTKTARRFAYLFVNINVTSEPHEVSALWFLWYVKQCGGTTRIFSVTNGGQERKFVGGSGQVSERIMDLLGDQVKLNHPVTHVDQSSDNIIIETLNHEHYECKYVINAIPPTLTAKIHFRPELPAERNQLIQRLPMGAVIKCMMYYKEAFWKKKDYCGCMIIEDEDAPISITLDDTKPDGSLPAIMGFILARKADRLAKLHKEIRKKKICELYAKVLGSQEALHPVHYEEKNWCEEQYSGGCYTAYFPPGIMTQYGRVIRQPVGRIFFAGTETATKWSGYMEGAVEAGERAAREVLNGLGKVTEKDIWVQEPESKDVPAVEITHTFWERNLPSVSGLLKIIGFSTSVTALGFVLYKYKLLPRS
The note with it: cited from earlier work.

Setting [6] is: patients with recurrent falls, versus placebo.

The text below walks through data of patent US20130197090A1, “POSTURAL STABILITY AND INCIDENT FUNCTIONS IN PATIENTS” (Chelsea Therapeutics, Inc., priority 2012, published 2013).

Regarding `NC(C(=O)O)C(O)c1ccc(O)c(O)c1` (stereo not drawn) [droxidopa, threo-3-(3,4-dihydroxyphenyl) serine], the “effect on freezing of gait” value in test [1] is “a beneficial effect was reported”. Moreover, in the test with PD patients [2] (Non-recurrent Fallers (n = 15)), the “Hoehn and Yahr, End of Study” value is listed as 1.4; the “Hoehn and Yahr, Baseline” value is reported as 1.8. In the test on PD patients [2] (Recurrent Fallers (n = 9)), the “Hoehn and Yahr, End of Study” value turned out to be 1.7; the “Hoehn and Yahr, Baseline” value was found to be 1.9. Moreover, in the test with PD patients [2] (end of study, N = 24), the “Change in Hoehn and Yahr Rating Scale Score: Improved, %” value turned out to be 42%; the “Change in Hoehn and Yahr Rating Scale Score: No Change, %” value came to 46%; the “Change in Hoehn and Yahr Rating Scale Score: Worsened, %” value stood at 13%. For the same compound, in the test with PD patients [2] (end of study, all droxidopa-treated patients, average, placebo no change), the “change from baseline in Hoehn and Yahr rating scale score” value is −0.4 points. For the same compound, the “treatment difference in Hoehn and Yahr rating scale score favoring droxidopa” value in the test with PD patients [2] (end of study, versus placebo) was −0.4 units. Further, in the test with PD patients [2] (setting [6]), the “improvement in Hoehn and Yahr score” value is given as “marked improvement”. In addition, in the test with PD patients [3] (Non-recurrent Fallers (n = 15)), the “MDS-UPDRS, End of Study” value stood at 58.1 and the “MDS-UPDRS, Baseline” value was determined as 74.3. In addition, in the test with PD patients [3] (Recurrent Fallers (n = 9)), the “MDS-UPDRS, End of Study” value turned out to be 77.7 and the “MDS-UPDRS, Baseline” value came to 89.1. The “improvement (decrease) from baseline in UPDRS score” value in the test on PD patients [3] (end of study, all droxidopa-treated patients, placebo 11.4) came to 15.8 point. The “improvement in UPDRS score” value in the test on PD patients [3] (setting [6]) is “marked improvement”. Further, in the test with PD patients [3] (versus placebo), the “each of the four components of the UPDRS score” value is on record as “showed benefits for droxidopa compared with placebo” and the “treatment difference favoring droxidopa in the total UPDRS score” value was 4.4 point. For the same compound, the “reduction in the number of falls compared with placebo-treated patients” value with PD patients [4] is approximately 60%. Further, the “total number of falls reported during the study” value in the test with PD patients [4] (10 weeks, 24 droxidopa-treated patients, titrated 100-600 mg TID, placebo 197) amounted to 79 falls. In the test on PD patients [4] (data from the first 10 days of the study removed), the “treatment effect on total number of patient falls” value is given as “beneficial treatment effect favoring droxidopa on the total number of patient falls remained evident”. Further, the “average falls per patient per week” value with PD patients [4] (full analysis set, placebo 0.93) is 0.39 falls per patient per week. Further, the “patients who experienced recurrent falls” value in the test on PD patients [4] (of 24 droxidopa-treated patients, placebo 12 of 27) is reported as “nine”. Besides, in the test with PD patients [4] (top five patients with highest number of falls in each group excluded, placebo 0.20), the “average falls per patient per week” value is 0.10 falls per patient per week. In the test on PD patients [4] (top two patients with highest number of falls in each group excluded, placebo 0.54), the “average falls per patient per week” value is reported as 0.16 falls per patient per week. For the same compound, the “cumulative number of patient-recorded falls over time” value in the test with PD patients [4] (versus placebo) is “relative increase in the number of falls in the placebo treatment group over time was consistently larger compared with the relative increase over time in the droxidopa treatment group”. Besides, the “rate of falls per patient per week” value with PD patients [5] (69 droxidopa-treated, 78 placebo-treated patients, titrated 100-600 mg TID) is “visibly less than in the placebo treatment group”. In addition, the “treatment effect on falls, sensitivity analysis” value in the test on PD patients [5] (top two, top five and top ten patients with highest number of falls in each group removed) is “beneficial treatment effect favoring droxidopa was again evident”.

Regarding `O=C(NCCN1CCOCC1)c1ccc(Cl)cc1` [moclobemide], the “selectivity for MAO-A over MAO-B” value on MAO-A is “approximately three times more selective for MAO-A than MAO-B”.
